Results reported in publication PMC4448209 (Journal of Neuroinflammation, 2015).
Entries after “also recorded” stand apart in the source; their conditions may differ.

Experiments:
Aβ-specific antibodies [1] = experiment: Anti-Aβ antibody ELISA, HLA-A2.1/HLA-DR1 mice; assay type: in vivo, mouse; details: Aβ1-42-coated plates, relative OD
Protocol: (§1) To measure serum anti-Aβ antibody titers in immunized mice, flat-bottom Nunc MaxiSorp ELISA plates were coated overnight at 4 °C with Aβ1-42 peptide (1 μg/ml in 0.1 M NaHCO3, pH 8.3). Plates were then washed twice with PBS-T and blocked with PBS-1 % BSA for 2 h at room temperature (RT). After two washes, plates were incubated for 2 h at RT with serum samples at various dilutions in blocking buffer. The Aβ1-17-specific mAb 6E10 (0.01 and 1 μg/ml) (Sigma-Aldrich, St Quentin Fallavier, France) was used as a positive internal reference sample. […] Results were expressed as relative OD = Experimental OD/Reference OD for 6E10 mAb in the same plate.

Aβ-specific antibodies [2] = experiment: Anti-Aβ antibody ELISA, C57BL/6 mice; assay type: in vivo, mouse
Protocol: as §1

AD patients [3] = details: cited from earlier work
Text: (§2) Alzheimer’s disease (AD) is a severe neurodegenerative disorder characterized by progressive loss of memory and cognitive functions. Accumulation of amyloid-β peptide (Aβ), both as soluble oligomers and in the form of amyloid plaques, plays a key role in initiating the pathogenic cascade in AD. […] In line with ...

animal models of AD = details: vaccination; cited from earlier work
Text: as §2

[4] = test system: IFNγ-secreting splenocytes; details: HLA-A2.1/HLA-DR1 mice, Aβ/CpG/IFA; dendritic cells loaded with Aβ or overlapping nonamer peptides; data not shown
[5] = test system: IFNγ-secreting splenocytes; experiment: IFNγ ELISPOT, splenocytes of immunized C57BL/6 mice; assay type: in vivo, mouse
1C11 neuronal cells = experiment: IFNγ ELISPOT, restimulation with 1C11 neuronal cells; details: inferred from 1C11 cells and APPPS1 CD11b^+ microglia
Protocol: Nitrocellulose-based 96-well plates (Millipore, Billerica, MA, USA) were coated with anti-mouse IFN-γ capture mAb (1 μg/ml; clone R4-6A2, BD Biosciences) and saturated with complete culture medium. Responder splenocytes from individual mice were seeded at 10^6 or 5 × 10^5 cells/wells and cultured with medium alone or containing 10 μg/ml of peptide. In some experiments, splenocytes were stimulated with CD11b^+ microglia (3 × 10^4/wells) isolated from the brain of WT or APPPS1 mice, or with mitomycin-treated 1C11 cells (2 × 10^4/wells), a neuronal cell line expressing both APP and H-2^b MHC-I but not MHC-II molecules [25, 26]. Plates were incubated at 37 °C in 5 % CO2 for 18 h, washed, and incubated with biotinylated anti-mouse IFNγ detection mAb (0.5 μ/ml; clone XMG1.2, BD Biosciences). Alkaline phosphatase conjugated to streptavidin (Roche, France) (1/500 dilution, 100 μL/well) was then added. IFNγ-secreting cells were visualized using TNB/BCIP substrate (Promega, Charbonnières, France), and spots were counted using an automatic ELISPOT plate reader. Samples were assayed in triplicate, and the frequency of peptide-specific T cells was calculated after subtracting the mean number of spots obtained in the absence of peptide or cells.

[6] = Hydrophobicity and solubility remark from peptide synthesis; assay type: physicochemical; details: likely reason why the 15-mer could not be productively synthetized
AD patients [7] = details: phase 3 studies released summer 2012; 10 (bapineuzumab), 11 (solanezumab); cited from earlier work

**Q.** Which results are given for Aβ1-42: Human Aβ1-42 peptide?
**A.** Aβ-specific antibodies in serum (Aβ-specific antibodies [1]): Aβ-specific antibodies were detected; anti-Aβ antibody isotypes (Aβ-specific antibodies [2]): predominantly of IgG1 and IgG2b isotypes; beneficial effects in AD patients (AD patients [3]; AN1792): modest beneficial effects; patients developing meningoencephalitis (AD patients [3]; human, in vivo): 6%; benefit in animal models of AD (animal models of AD): of benefit in animal models of AD; CD8^+ T cell response [4]: did not trigger any CD8^+ T cells able to recognize dendritic cells loaded with either Aβ or overlapping nonamer peptides

**Q.** Which results are given for GLMVGGVVI [Aβ33-41]?
**A.** restimulation of Aβ33-41NP-specific CD8^+ T cells by exogenously loaded native peptide [5]: could not restimulate Aβ33-41NP-specific CD8^+ T cells when loaded exogenously; natural processing and presentation by microglia and neuronal cells (1C11 neuronal cells): can be naturally processed and presented in both microglia and neuronal cells; also recorded: appears to be naturally processed and presented to immune effectors

**Q.** What does the source list for “Aβ28-42: 15-mer candidate peptide, could not be productively synthetized (KGAIIGLMVGGVVIA; Amyloid-beta protein 42; UniProt P05067 699-713, looked up, fragment)”?
**A.** hydrophobicity [6]: very high hydrophobicity; solubility [6]: poor solubility

**Q.** For “solanezumab: humanized anti-Aβ monoclonal antibody”, which “improvement of cognitive performance” value (AD patients [7]) is on record?
**A.** inefficient at improving cognitive performance
